ChEMBL document CHEMBL1136649, “Synthesis and antibacterial study of 10, 15, 20-triphenyl-5-(4-hydroxy-3-(trimethylammonium)methyl)phenylporphyrin as models for combination of porphyrin and alkylating agent” (2003)
Converted amounts (≈) assume the structure as drawn.

System: Staphylococcus aureus
Experiment: Minimum inhibitory concentration required against Staphylococcus aureus ATCC 25923
Assay type: functional

MIC [µM] | SMILES
120 (≈ 82.5 µg/mL) | CN(C)Cc1cc(-c2c3nc(c(-c4ccccc4)c4ccc([nH]4)c(-c4ccccc4)c4nc(c(-c5ccccc5)c5ccc2[nH]5)C=C4)C=C3)ccc1O
240 | COc1ccc(-c2c3nc(c(-c4ccccc4)c4ccc([nH]4)c(-c4ccccc4)c4nc(c(-c5ccccc5)c5ccc2[nH]5)C=C4)C=C3)cc1C[N+](C)(C)C
60 | C[N+](C)(C)Cc1cc(-c2c3nc(c(-c4ccccc4)c4ccc([nH]4)c(-c4ccccc4)c4nc(c(-c5ccccc5)c5ccc2[nH]5)C=C4)C=C3)ccc1O
